From patent US11479533B2, “Inhibitors of Rho associated coiled-coil containing protein kinase” (KADMON CORPORATION, LLC, priority 2017, dated 2022)
Where two headings read alike, the source gives them in different places.

Legend:
[1] = biological target: recombinant ROCK1 (amino acids 1-535) (Homo sapiens (Human), UniProt Q13464); test: Z'-lyte kinase assay, ROCK1; type: biochemical
Method: Determination of compounds ROCK inhibitory activity in vitro (Z'lyte assay): recombinant ROCK1 (amino acids 1-535) and ROCK2 (amino acids 1-552) proteins were purchased from ThermoFisher Scientific. Compounds activities were measured by Z'-lyte kinase kit (ThermoFisher Scientific) and IC50s were calculated.
Compounds activities were measured by Z'-lyte kinase kit (ThermoFisher Scientific). […] IC50s were calculated using the GraphPad Prism software with kinase activities data that were collected from 9 points serial dilution of compounds treatment. The ROCK inhibition in A7R5 cells and NIH3T3 (Acta2-Luc) cells was performed as described above.
The percent inhibition rate was calculated by normalizing the kinase activity value obtained with compound treatment against DMSO control value and then applied to the equation, […]. IC50's were calculated using the nonlinear regression curve fit function of the GraphPad Prism software with kinase activities data measured with 9 points 2-fold serial dilution of compounds treatment.

[2] = system: ppMlc (T18/S19) levels in A7R5 cells; test: A7R5 in-cell ELISA assay (ppMlc); type: cell-based, rat; settings: Rattus norvegicus, A7R5, A7R5 cells
Procedure, shortened: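 Rat aortic smooth muscle A7R5 cells in DMEM with 10% FBS, seeded 24 h, then treated 90 min with 9-point 2-fold compound dilutions. ppMlc (T18/S19) measured by colorimetric in-cell ELISA; cellular IC50 from nonlinear regression curve fit.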

[3] = system: human oligodendrocyte/neuron progenitor cells; test: Neurite outgrowth and differentiation of human oligodendrocyte/neuron progenitors; type: cell-based
Method: Thawing and proliferation of human oligodendrocyte/neuron progenitor cells (OPCs). Cryopreserved human oligodendrocyte/neuron progenitors (Millipore Cat. No. CS204496) were recovered and cultured on maltrigel (BD Cat. No. 356324) coated T-25 flask in expansion media containing OPC/neuron basal medium, N21 medium supplement, recombinant human bFGF, PDGF-AA and NT-3. When cells reached 80% confluent, 3 ml of Accutase was applied (Millipore SCR005) to passage cells at 1:4 ratio. Sub-cultured cells were maintained in expansion media for proliferation.
Spontaneous differentiation of human oligodendrocyte/neuron progenitors in 24-well and 96-well plates. Coat plate with 10 μg/ml poly-L-ornithine (Sigma Cat. No. P4957) overnight at room temperature. Remove the poly-L-ornithine solution and rinse the plate with 1×PBS, add 10 μg/ml laminin (Millipore Cat. No. CC095) and incubate at 37° C. for at least 2 hours. Seed cells on the coated plates in expansion media and allowed to attach overnight. The next day expansion media was removed and replaced with freshly prepared spontaneous differentiation media only containing OPC/neuron basal media and N21 media supplement. For 14 day culture, differentiation media was replaced every 3-4 days. Cells were imaged and neurite length was analyzed by IncuCyte S3 Live Cell Analysis System every 4 hours. After 14 days of differentiation, cells were fixed by 4% paraformaldehyde and stained with DAPI and Neuron-specific ß-III tubulin antibody (R&D systems, NL1195R).

[4] = system: human oligodendrocyte/neuron progenitor cells; test: Aβ 1-42 induced cell death assay on human oligodendrocyte/neuron progenitors; type: cell-based; settings: 3 μM, 10.5 μM Aβ1-42, 24 hour
Method: Aβ 1-42 induced cell death assay on human oligodendrocyte/neuron progenitors in 96-well plate. Cells were seeded on poly-L-ornithine and laminin coated plates at a density of 8,000 cells per well and maintained in expansion media until Day 3, then media was replaced with fresh spontaneous differentiation media containing testing compounds and IncuCyte Annexin V Red Reagent (1:200 dilution) (Essen BioScience Cat. No. 4641). After the pre-incubation period of 30 minutes at 37° C., 10.5 μM Aβ 1-42 (Bachem Product No. H-8146) was added directly in the pretreatment solution. Neurite length and total Annexin V positive area were analyzed by IncuCyte S3 Live Cell Analysis System every 2 hours.
In addition to promoting neuroregeneration, ROCK inhibitors have been reported to exert neuroprotective effects and prolong neuronal survival. Here we test the neuroprotective effect of ROCK inhibitors against Aβ1-42. Human oligodendrocyte/neuron progenitor cells were pre-incubated with ROCK inhibitors for 30 minutes before exposing to 10.5 μM Aβ1-42. IncuCyte Annexin V Red Reagent was added to culture media to label cell apoptosis. Pictures were taken by IncuCyte S3 and total Annexin V positive area was analyzed by IncuCyte S3 base software. Neurite length was quantified by IncuCyte NeuroTrack Software Module, see FIGS. 3b and 3c.

[5] = system: bleomycin induced lung fibrosis; test: Bleomycin induced lung fibrosis in mice (prophylactic administration); type: in vivo, mouse; settings: oral once daily, 21-day treatment; ≥10 mg/kg
Method: Bleomycin induced lung fibrosis in mice (Phrophylactic administration): Male C57B/L6 mice were ear tagged and weighed prior to the start of the study. Treatment group animals were treated with the compound on day −1 pre-bleomycin and all subsequent days post-bleomycin administration. On day 0, animals in disease groups received 1.5 U/kg dose of bleomycin via oropharyngeal route. The non-bleomycin control group received sterile saline. Animals were closely monitored daily till the end of the study. On day 21 following bleomycin administration, all animals were euthanized and blood, lung, and bronchoalveolar lavage (BAL) fluid were collected. Blood samples were used for plasma preparation; total leukocytes were counted in BAL fluid; and lungs were fixed in 10% neutral buffered formalin for histopathological analysis. Based on the strong anti-fibrotic cellular activity of ROCK inhibitors of this invention, the ability of such inhibitors to attenuate fibrosis in the in vivo setting was assessed in several mouse models of fibrotic diseases including the bleomycin induced pulmonary fibrosis. […] The improvement in the overall lung fibrosis, α-smooth muscle actin (αSMA) percentage positive area and total leukocytes count in bronchoalveolar lavage fluid was quantitated by applying the Ashcoft score criteria to the histopathology images, IHC quantitation and flowcytometry respectively.

Chain of recombinant ROCK1 (amino acids 1-535) (Q13464 1-535): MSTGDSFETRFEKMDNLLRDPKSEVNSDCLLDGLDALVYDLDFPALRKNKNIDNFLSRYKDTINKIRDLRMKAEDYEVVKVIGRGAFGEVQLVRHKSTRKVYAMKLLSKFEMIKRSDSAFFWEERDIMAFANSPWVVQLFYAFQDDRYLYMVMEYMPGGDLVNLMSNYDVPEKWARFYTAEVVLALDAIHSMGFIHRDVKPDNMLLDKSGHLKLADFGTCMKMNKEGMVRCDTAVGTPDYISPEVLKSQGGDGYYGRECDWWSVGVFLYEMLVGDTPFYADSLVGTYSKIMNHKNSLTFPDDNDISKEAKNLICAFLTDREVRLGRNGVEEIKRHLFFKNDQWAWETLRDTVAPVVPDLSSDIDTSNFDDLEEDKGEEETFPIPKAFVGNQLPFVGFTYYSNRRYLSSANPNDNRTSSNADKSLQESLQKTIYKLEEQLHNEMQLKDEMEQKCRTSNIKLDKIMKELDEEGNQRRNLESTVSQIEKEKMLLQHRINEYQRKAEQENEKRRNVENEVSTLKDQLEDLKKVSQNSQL

- IC50 [1]: 0.017 µM
- IC50 ([2]; Table 2, read-out: pMLC IC50 (nM) A7R5): 120 nM
- IC50 ([2]; ppMlc (T18/S19), in-cell ELISA, read-out: ppMlc IC50): 86 nM
SMILES: CNC(C(=O)Nc1ccc(-c2cn[nH]c2)cc1)c1cccc(OC)c1 (stereo not shown) [Example 2, N-(4-(1H-pyrazol-4-yl)phenyl)-2-(3-methoxyphenyl)-2-(methylamino)acetamide]
- neuronal differentiation and maturation ([3]; 14 days culture, Beta III tubulin): facility neuronal differentiation and maturation
- neurite length ([3]; various concentrations, 3 days culture): significantly increase neurite length
- Aβ1-42 induced cell death (Annexin V area) [4]: significantly protect
- Ashcroft fibrotic indices, αSMA percentage positive area and total leukocytes count in bronchoalveolar lavage fluid [5]: positive activity
